Laboratory results taken from the supplement of paper PMC8967900.

Columns and labels:
Assay in all cases: selective drug sensitivity score (sDSS, relative to normal bone marrow) (sDSS (score)); higher = more potent and effective on the cell line relative to normal bone marrow cells
Conditions in all cases: 72 h
RCH-ACV = tested on: RCH-ACV
CCRF-HSB2 = tested on: CCRF-HSB2
ALL-PO = tested on: ALL-PO
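Note: ALL cell lines in 384-well plates, five doses spanning 10,000-fold, each plate scaled between vehicle and 100 µmol/L benzalkonium chloride controls, sDSS an adapted area-under-curve metric.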

Row | SMILES | selective drug sensitivity score (RCH-ACV) | selective drug sensitivity score (CCRF-HSB2) | selective drug sensitivity score (ALL-PO)
1 | Cc1c(F)cc(C(=O)NC2CC2)cc1-c1ccc(C(=O)NCC(C)(C)C)cn1 [Losmapimod] (top concentration 10000 nM) | 11.5 | -0.08 | -0.18
2 | CNC(=O)c1cccc2cc(Oc3ccnc4cc(OCC5(N)CC5)c(OC)cc34)ccc12 [Lucitanib] (top concentration 10000 nM) | 6.38 | 3.88 | 2.08
3 | O=C1c2c(O)ccc(O)c2C(=O)c2c(NCCNCCO)ccc(NCCNCCO)c21 [Mitoxantrone] (top concentration 1000 nM) | 16.2 | 14.2 | -0.06
4 | CC1(C)CNc2cc(NC(=O)c3cccnc3NCc3ccncc3)ccc21 [Motesanib] (top concentration 10000 nM) | -0.22 | 1.08 | -0.22
5 | CCCN(CCC)C(=O)C1=Cc2ccc(-c3ccc(C(=O)N4CCCC4)cc3)cc2N=C(N)C1 [Motolimod] (top concentration 10000 nM) | -1.68 | -3.48 | -3.88
6 | Cc1cc(-c2ncc(CC(=O)Nc3ccc(-c4cnccn4)cn3)cc2C)ccn1 [NVP-LGK974] (top concentration 10000 nM) | 5.6 | 0.5 | 3.4
7 | CC1(C)NC(=O)N(c2ccc([N+](=O)[O-])c(C(F)(F)F)c2)C1=O [Nilutamide] (top concentration 10000 nM) | -0.48 | -0.48 | -0.08
8 | CNC(=O)c1ccc2cc([C@@]3(O)CCn4cncc43)ccc2c1 [Orteronel] (top concentration 10000 nM) | 0 | 0 | 0
9 | C=CCc1cccc(/C=N/NC(=O)CN2CCN(Cc3ccccc3)CC2)c1O [PAC-1] (top concentration 10000 nM) | 1.18 | 1.78 | 0.98
10 | O=C(Nc1cccnc1)N1CCC(Cc2cccc(Oc3ccc(C(F)(F)F)cn3)c2)CC1 [PF-3845] (top concentration 10000 nM) | 5.66 | 3.26 | 2.36
11 | COc1cc(Br)c(Nc2nc(-c3c(C)nc4ncccn34)cs2)c(Br)c1 [PTC-209] (top concentration 10000 nM) | 7.12 | 0.72 | -0.98
12 | C=CC(=O)N1CCC(Oc2cc3c(Nc4ccc(Cl)c(Cl)c4F)ncnc3cc2OC)CC1 [Poziotinib] (top concentration 1000 nM) | 4.98 | 3.68 | -0.22
13 | CC[C@H](C)C(=O)O[C@H]1C[C@H](O)C=C2C=C[C@H](C)[C@H](CC[C@@H](O)C[C@@H](O)CC(=O)O)[C@H]21 [Pravastatin] (top concentration 10000 nM) | -0.56 | -0.66 | -0.66
14 | COC(=O)c1ccc([C@H]2c3[nH]c4ccccc4c3C[C@H](C(=O)OC)N2C(=O)CCl)cc1 [RSL3] (top concentration 10000 nM) | 4.5 | 0 | 0
15 | Cc1cnc(NC(=O)Nc2cc(Br)c(C)cc2OC[C@@H]2CNCCO2)cn1 [Rabusertib] (top concentration 1000 nM) | 2.06 | -0.74 | 0.46
16 | CCOCc1nc2c(N)nc3ccccc3c2n1CC(C)(C)O [Resiquimod] (top concentration 10000 nM) | -4.92 | -4.92 | -4.92

Row | SMILES | selective drug sensitivity score (RCH-ACV) | selective drug sensitivity score (CCRF-HSB2) | selective drug sensitivity score (ALL-PO)
17 | C[C@H]1CNCCCN1S(=O)(=O)c1cccc2cncc(F)c12 [Ripasudil] (top concentration 10000 nM) | -0.22 | 1.58 | -0.22
18 | Cc1nc(C(=O)NCC(=O)O)c(O)c2ccc(Oc3ccccc3)cc12 [Roxadustat] (top concentration 10000 nM) | -1.12 | -0.52 | -0.82
19 | CN(C)C[C@@H]1CCn2cc(c3ccccc32)C2=C(C(=O)NC2=O)c2cn(c3ccccc23)CCO1 [Ruboxistaurin] (top concentration 10000 nM) | 1.06 | 1.36 | 6.86
20 | CN(CC(=O)N(Cc1ccc(C2CCCCC2)cc1)c1ccc(C(=O)O)cc1)S(=O)(=O)c1c(F)c(F)c(F)c(F)c1F [SH-4-54] (top concentration 25000 nM) | -2.24 | -5.04 | -6.04
21 | Cc1cc2c(C(=O)NC[C@H](C)c3ccccc3)c(O)c(O)cc2c(O)c1-c1c(C)cc2c(C(=O)NC[C@H](C)c3ccccc3)c(O)c(O)cc2c1O [Sabutoclax] (top concentration 25000 nM) | 16.8 | 16.3 | 12.2
22 | CC1=C2C[C@H]3[C@@H](CC[C@@H]4C[C@H](NS(C)(=O)=O)CC[C@@]43C)[C@@H]2CC[C@@]2(C1)O[C@@H]1C[C@H](C)CN[C@H]1[C@H]2C [Saridegib] (top concentration 10000 nM) | 6.64 | 0.24 | 1.74
23 | Cc1cc(F)c(C(=O)Nc2cccc(-c3nncn3C(C)C)n2)cc1-n1cnc(C2CC2)c1 [Selonsertib] (top concentration 1000 nM) | 0.5 | 0 | 0
24 | Nc1nc2cc(-c3ccc4ncc(C(=O)N5CCOCC5)n4c3)ccc2o1 [Serabelisib] (top concentration 10000 nM) | 6.56 | -1.24 | 4.96
25 | CCC(C)(C)C(=O)O[C@H]1C[C@@H](C)C=C2C=C[C@H](C)[C@H](CC[C@@H]3C[C@@H](O)CC(=O)O3)[C@H]21 [Simvastatin] (top concentration 10000 nM) | 2.18 | 0.08 | -0.72
26 | C=CCN(/C=C1/C(=O)O[C@H](COC)[C@@]2(C)C1=C(O)C(=O)C1=C2[C@H](OC(C)=O)C[C@]2(C)C(=O)CC[C@@H]12)CC=C [Sonolisib] (top concentration 10000 nM) | 2.14 | -0.76 | 2.44
27 | CC(C)n1cnc2c(NCCc3ccc(O)cc3)nc(-c3csc4ccccc34)nc21 [StemRegenin_1] (top concentration 10000 nM) | -0.6 | 1.9 | 1.9
28 | CC(C)(O)CC(=O)NCCn1ccc2ncnc(Nc3ccc(Oc4cccc(C(F)(F)F)c4)c(Cl)c3)c21 [TAK-285] (top concentration 2500 nM) | 0 | 0 | 0
29 | Nc1nc(N)c2nc(-c3cccc(O)c3)c(-c3cccc(O)c3)nc2n1 [TG100-115] (top concentration 10000 nM) | 5.6 | 3.9 | -0.2
30 | CC/C(=C(\c1ccccc1)c1ccc(OCCN(C)C)cc1)c1ccccc1 [Tamoxifen] (top concentration 10000 nM) | 4.42 | 0.92 | 2.72
31 | COc1cc2c(N3CCN(C(=O)Nc4ccc(OC(C)C)cc4)CC3)ncnc2cc1OCCCN1CCCCC1 [Tandutinib] (top concentration 1000 nM) | 0 | 0 | 3.1
